Data on five molecules can be found in publication PMC5540273, “Progress towards a public chemogenomic set for protein kinases and a call for contributions” (PLoS ONE, 2017).

Holding throughout (assay): KINOMEscan competition binding
The target of one assay is AMPK-alpha2 (Homo sapiens, UniProt P54646). Particulars: read-out: %Inh AMPK-alpha2.
In another assay the target is CAMK1D (Homo sapiens, UniProt Q8IU85). Particulars: read-out: %Inh CAMK1D.
A further assay deals with CAMK2B (Homo sapiens, UniProt Q13554). Particulars: read-out: %Inh CAMK2B.
The target in the next assay is CSNK1E (Homo sapiens, UniProt P49674). Particulars: read-out: %Inh CSNK1E.
Another assay addresses CSNK1G1 (Homo sapiens, UniProt Q9HCP0). Particulars: read-out: %Inh CSNK1G1.
For the next assay, the target named is T1, EPHB2 (Homo sapiens, UniProt P29323).
T1 sequence (P29323 19-1055): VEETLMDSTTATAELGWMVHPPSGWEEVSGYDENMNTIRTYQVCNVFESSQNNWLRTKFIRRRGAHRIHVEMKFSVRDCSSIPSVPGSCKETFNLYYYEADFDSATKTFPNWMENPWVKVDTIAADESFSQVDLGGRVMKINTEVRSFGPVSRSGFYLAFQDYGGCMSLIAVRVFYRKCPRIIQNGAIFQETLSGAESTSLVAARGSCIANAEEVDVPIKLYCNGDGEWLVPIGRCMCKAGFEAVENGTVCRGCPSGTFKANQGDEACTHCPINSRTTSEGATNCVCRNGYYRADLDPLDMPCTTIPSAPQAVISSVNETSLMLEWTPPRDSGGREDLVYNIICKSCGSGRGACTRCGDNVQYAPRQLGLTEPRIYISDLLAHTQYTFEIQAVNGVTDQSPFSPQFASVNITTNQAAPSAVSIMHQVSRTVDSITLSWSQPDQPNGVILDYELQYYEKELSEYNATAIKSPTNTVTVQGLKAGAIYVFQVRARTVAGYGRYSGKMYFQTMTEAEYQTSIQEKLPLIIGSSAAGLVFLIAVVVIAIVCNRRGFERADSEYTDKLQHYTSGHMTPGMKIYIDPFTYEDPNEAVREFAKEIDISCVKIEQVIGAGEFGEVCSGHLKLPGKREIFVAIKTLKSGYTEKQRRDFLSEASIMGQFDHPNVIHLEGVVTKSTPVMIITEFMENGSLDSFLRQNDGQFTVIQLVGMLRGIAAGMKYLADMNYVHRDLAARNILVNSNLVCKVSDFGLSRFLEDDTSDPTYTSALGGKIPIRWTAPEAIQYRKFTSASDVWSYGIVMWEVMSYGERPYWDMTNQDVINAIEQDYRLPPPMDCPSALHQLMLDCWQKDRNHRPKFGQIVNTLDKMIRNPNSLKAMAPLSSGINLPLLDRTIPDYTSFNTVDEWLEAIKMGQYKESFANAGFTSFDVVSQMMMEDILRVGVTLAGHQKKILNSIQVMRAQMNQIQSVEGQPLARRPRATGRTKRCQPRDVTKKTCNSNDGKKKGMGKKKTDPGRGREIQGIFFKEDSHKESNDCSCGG
As to conditions: read-out: %Inh EPHB2.

Another assay deals with ERK4 (Homo sapiens, UniProt P31152). Particulars: read-out: %Inh ERK4.
For another assay, the target named is ERK5 (Homo sapiens, UniProt Q13164). Particulars: read-out: %Inh ERK5.
The target in a further assay is FLT4 (Homo sapiens, UniProt P35916). As to conditions: read-out: %Inh FLT4.
Another assay addresses GSK3B (Homo sapiens, UniProt P49841). As to conditions: read-out: %Inh GSK3B.
The target of another assay is HCK (Homo sapiens, UniProt P08631). Particulars: read-out: %Inh HCK.
For the next assay, the target named is T2, ICK (Homo sapiens, UniProt Q9UPZ9).
T2 sequence (Q9UPZ9 1-632): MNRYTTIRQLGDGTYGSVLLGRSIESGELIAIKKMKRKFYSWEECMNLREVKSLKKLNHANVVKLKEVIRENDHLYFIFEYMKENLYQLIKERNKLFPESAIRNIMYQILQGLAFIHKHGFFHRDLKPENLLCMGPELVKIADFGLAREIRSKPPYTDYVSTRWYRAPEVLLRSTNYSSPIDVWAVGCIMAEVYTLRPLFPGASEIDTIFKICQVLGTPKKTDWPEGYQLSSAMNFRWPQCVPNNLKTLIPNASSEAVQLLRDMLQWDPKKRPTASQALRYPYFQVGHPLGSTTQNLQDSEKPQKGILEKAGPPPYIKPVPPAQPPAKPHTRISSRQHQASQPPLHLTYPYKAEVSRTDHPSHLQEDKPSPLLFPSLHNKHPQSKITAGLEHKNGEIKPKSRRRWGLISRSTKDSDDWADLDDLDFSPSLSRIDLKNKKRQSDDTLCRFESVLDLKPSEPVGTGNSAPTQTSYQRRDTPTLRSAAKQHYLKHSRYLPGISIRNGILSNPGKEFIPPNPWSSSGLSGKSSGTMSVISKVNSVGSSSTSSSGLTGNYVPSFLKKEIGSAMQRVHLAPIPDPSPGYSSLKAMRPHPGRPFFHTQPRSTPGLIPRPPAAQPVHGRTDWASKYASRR
Particulars: read-out: %Inh ICK.

Sequence of ERK5 (Q13164 whole entry): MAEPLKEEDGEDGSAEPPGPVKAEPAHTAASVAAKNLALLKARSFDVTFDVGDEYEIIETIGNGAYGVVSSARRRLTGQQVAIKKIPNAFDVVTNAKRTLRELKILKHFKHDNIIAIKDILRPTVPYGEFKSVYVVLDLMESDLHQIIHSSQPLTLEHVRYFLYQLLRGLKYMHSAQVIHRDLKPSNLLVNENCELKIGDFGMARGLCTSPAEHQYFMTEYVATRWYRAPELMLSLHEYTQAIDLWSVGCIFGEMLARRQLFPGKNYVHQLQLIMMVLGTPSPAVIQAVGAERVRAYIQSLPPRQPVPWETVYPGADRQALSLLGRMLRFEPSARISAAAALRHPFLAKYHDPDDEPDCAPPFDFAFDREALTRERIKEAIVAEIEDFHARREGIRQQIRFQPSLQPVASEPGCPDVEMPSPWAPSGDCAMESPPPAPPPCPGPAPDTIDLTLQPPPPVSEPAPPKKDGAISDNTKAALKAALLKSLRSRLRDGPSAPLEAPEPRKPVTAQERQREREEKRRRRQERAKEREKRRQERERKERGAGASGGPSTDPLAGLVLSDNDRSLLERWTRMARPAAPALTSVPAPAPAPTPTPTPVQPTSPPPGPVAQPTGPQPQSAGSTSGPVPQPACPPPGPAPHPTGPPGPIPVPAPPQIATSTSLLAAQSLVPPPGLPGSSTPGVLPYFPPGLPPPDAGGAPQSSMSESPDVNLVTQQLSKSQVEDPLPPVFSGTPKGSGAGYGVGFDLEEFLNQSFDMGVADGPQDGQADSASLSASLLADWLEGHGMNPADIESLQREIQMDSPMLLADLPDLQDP
Sequence of GSK3B (P49841 whole entry): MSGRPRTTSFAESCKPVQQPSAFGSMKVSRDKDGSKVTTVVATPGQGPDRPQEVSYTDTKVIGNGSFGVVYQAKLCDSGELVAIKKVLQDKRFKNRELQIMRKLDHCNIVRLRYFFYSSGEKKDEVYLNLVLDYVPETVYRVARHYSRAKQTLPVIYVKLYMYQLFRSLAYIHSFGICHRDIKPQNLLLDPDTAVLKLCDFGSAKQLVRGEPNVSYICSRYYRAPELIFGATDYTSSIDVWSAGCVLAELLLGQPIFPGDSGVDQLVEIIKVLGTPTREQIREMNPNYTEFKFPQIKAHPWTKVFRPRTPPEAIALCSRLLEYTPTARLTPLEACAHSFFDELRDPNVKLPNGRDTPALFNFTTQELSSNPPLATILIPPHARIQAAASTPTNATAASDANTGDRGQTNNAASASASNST
Sequence of CSNK1E (P49674 whole entry): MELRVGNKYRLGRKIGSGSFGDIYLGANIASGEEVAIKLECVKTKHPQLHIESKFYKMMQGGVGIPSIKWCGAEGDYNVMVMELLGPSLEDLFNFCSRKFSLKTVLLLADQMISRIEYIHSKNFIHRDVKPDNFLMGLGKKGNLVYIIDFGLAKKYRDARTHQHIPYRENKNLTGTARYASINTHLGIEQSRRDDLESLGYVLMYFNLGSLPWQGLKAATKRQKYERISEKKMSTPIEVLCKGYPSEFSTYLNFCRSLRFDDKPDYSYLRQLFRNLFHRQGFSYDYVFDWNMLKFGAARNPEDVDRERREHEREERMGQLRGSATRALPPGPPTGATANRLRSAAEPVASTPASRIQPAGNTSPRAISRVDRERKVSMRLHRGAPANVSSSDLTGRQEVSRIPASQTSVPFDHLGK
Sequence of CAMK1D (Q8IU85 whole entry): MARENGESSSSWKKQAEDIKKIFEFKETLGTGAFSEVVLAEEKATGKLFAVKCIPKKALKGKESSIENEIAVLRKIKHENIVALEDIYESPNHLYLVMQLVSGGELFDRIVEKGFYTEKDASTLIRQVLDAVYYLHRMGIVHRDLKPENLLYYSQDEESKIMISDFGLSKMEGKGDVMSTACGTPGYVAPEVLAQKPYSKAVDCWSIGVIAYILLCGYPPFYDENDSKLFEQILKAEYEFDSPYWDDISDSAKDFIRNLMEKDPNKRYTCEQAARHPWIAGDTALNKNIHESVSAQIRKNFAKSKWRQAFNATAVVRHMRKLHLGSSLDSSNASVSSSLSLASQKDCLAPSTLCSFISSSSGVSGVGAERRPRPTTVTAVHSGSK
Sequence of ERK4 (P31152 whole entry): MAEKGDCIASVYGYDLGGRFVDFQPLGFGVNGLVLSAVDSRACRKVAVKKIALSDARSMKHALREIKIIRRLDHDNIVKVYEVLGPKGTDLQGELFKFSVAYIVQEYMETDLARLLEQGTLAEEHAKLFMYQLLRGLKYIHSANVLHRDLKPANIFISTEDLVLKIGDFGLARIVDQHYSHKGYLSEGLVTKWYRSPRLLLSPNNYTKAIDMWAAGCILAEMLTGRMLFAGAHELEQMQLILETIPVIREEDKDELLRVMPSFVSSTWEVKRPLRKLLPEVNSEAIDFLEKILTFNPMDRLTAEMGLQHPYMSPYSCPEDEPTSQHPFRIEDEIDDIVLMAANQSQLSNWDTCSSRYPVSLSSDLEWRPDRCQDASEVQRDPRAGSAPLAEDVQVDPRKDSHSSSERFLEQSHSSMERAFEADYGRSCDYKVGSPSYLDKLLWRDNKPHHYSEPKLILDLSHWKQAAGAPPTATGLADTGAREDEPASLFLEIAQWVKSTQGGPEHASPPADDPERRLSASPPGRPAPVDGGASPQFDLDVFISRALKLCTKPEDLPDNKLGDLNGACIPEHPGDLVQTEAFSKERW
Sequence of CAMK2B (Q13554 whole entry): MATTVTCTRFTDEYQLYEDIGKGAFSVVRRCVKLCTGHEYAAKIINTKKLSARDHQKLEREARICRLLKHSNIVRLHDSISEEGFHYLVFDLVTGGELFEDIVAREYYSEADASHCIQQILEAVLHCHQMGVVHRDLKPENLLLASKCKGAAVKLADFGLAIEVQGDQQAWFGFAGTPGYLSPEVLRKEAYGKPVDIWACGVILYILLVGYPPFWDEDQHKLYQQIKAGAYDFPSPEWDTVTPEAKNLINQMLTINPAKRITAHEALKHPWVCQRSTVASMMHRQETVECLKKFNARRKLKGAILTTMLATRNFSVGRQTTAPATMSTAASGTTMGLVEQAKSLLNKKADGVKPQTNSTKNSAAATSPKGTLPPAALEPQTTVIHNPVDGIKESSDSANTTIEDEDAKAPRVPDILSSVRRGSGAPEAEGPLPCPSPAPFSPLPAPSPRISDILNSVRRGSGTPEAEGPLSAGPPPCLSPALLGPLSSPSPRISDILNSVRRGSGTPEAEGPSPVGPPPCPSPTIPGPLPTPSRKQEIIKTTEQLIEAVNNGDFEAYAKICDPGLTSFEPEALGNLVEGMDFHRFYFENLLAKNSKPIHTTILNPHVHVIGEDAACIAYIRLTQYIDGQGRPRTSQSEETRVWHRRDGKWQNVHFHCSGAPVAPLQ
Sequence of HCK (P08631 whole entry): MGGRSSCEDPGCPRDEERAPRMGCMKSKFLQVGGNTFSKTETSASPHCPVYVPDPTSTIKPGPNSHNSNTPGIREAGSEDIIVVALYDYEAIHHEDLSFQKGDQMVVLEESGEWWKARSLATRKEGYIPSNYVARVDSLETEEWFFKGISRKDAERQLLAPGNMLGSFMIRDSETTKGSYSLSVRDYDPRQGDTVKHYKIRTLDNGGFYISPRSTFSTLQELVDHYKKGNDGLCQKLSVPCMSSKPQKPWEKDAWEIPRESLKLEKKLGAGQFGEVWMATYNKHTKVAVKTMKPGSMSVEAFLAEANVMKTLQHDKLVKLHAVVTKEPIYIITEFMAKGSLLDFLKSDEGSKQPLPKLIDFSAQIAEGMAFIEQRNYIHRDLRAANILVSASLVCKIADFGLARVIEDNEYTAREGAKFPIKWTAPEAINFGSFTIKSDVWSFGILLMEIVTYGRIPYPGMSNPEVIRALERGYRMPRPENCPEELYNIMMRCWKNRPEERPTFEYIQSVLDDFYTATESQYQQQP
Sequence of AMPK-alpha2 (P54646 whole entry): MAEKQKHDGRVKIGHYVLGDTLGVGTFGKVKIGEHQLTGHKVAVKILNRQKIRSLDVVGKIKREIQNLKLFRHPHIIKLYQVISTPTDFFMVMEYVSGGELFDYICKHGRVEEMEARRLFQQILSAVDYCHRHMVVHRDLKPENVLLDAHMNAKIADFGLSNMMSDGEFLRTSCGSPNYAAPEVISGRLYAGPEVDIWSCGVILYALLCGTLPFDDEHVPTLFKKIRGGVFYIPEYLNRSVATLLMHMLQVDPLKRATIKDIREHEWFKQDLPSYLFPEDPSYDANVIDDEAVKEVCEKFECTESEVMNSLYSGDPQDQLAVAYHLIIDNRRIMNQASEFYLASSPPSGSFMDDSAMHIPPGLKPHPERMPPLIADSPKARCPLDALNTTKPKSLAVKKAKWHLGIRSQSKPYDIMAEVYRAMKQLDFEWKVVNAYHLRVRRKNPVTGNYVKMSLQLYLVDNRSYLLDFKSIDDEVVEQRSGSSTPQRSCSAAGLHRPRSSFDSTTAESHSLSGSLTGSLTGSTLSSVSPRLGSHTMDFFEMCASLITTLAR
Sequence of CSNK1G1 (Q9HCP0 whole entry): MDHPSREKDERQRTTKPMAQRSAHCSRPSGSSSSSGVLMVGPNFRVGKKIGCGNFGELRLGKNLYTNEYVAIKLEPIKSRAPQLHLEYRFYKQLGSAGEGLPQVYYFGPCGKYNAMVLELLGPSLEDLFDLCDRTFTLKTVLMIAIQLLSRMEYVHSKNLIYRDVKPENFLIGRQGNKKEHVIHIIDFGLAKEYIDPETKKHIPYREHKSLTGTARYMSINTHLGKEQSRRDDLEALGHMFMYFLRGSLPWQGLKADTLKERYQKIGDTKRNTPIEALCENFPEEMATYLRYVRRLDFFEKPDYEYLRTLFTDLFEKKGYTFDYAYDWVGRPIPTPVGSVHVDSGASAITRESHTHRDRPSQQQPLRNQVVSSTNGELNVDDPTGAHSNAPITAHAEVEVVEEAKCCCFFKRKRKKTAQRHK

As to `O=c1cc(N2CCOCC2)nc2n(Cc3cccc(Cl)c3Cl)c(C3CC3)nn12` [UNC10225469A], the inhibition at 1 µM is 0% on AMPK-alpha2; 0% at CAMK1D; 10% on CAMK2B; 11% at CSNK1E; 0% on CSNK1G1; 0% at EPHB2. For the same molecule, the inhibition at 1 µM was determined as 0% at ERK4; 0% on ERK5; 10% on FLT4; 0% on GSK3B; 0% on HCK; 4% at ICK.
As for `COc1cccc(OC)c1C(=O)Nc1cccc(-c2nn3ccccc3c2-c2ccnc(Nc3cccc(F)c3)n2)c1` [UNC10225310A], the inhibition at 1 µM was 4% at AMPK-alpha2; 13% on CAMK1D; 6% on CAMK2B; 64% at CSNK1E; 14% on CSNK1G1; 0% on EPHB2. Also, the inhibition at 1 µM on ERK4 stood at 9%; on ERK5 it was 2%; at FLT4, 27%; at GSK3B it was 0%; on HCK it was 30%; at ICK it was 0%.
Take `CS(=O)(=O)Cc1ccc(Nc2nccc(-c3c(-c4cccc(NC(=O)C5CCCCC5)c4)nn4ncccc34)n2)cc1` [UNC10225159A]: the inhibition at 1 µM on AMPK-alpha2 was 2%; at CAMK1D, 0%; on CAMK2B, 8%; at CSNK1E, 20%; on CSNK1G1, 2%; at EPHB2, 3%. The inhibition at 1 µM was 3% at ERK4; 0% at ERK5; 52% at FLT4; 20% on GSK3B; 1% on HCK; 14% on ICK.
On to `Cc1ccc(NC(=O)Nc2cccc(C(F)(F)F)c2)cc1` [UNC10225187A], for which the inhibition at 1 µM on AMPK-alpha2 was 0%; at CAMK1D, 25%; on CAMK2B, 25%; at CSNK1E it was 0%; on CSNK1G1, 0%; on EPHB2, 3%. The inhibition at 1 µM at ERK4 turned out to be 0%; at ERK5, 5%; on FLT4, 12%; at GSK3B, 0%; on HCK, 0%; on ICK, 0%.
Take `Cn1cc(-c2cnc(N)c3c(-c4ccc5c(c4)CCN5C(=O)Cc4ccccc4)csc23)cn1` [UNC10225012A]: the inhibition at 1 µM on AMPK-alpha2 was 0%; at CAMK1D, 11%; on CAMK2B it was 12%; on CSNK1E, 1%; at CSNK1G1 it was 21%; at EPHB2, 2%. Also, the inhibition at 1 µM was 0% at ERK4; 15% on ERK5; 31% on FLT4; 0% at GSK3B; 86% on HCK; 100% at ICK.
